Read-outs that look alike come from different tables or passages of the source.
Biological target: T1, recombinant human Meningioma Expressed Antigen 5 (MGEA5), also referred to as O-GlcNAcase (OGA) (Homo sapiens, UniProt O60502)
T1 construct: Full length OGA enzyme was purchased at OriGene (cat # TP322411); purchased OriGene TP322411
T1 sequence (O60502 1-916): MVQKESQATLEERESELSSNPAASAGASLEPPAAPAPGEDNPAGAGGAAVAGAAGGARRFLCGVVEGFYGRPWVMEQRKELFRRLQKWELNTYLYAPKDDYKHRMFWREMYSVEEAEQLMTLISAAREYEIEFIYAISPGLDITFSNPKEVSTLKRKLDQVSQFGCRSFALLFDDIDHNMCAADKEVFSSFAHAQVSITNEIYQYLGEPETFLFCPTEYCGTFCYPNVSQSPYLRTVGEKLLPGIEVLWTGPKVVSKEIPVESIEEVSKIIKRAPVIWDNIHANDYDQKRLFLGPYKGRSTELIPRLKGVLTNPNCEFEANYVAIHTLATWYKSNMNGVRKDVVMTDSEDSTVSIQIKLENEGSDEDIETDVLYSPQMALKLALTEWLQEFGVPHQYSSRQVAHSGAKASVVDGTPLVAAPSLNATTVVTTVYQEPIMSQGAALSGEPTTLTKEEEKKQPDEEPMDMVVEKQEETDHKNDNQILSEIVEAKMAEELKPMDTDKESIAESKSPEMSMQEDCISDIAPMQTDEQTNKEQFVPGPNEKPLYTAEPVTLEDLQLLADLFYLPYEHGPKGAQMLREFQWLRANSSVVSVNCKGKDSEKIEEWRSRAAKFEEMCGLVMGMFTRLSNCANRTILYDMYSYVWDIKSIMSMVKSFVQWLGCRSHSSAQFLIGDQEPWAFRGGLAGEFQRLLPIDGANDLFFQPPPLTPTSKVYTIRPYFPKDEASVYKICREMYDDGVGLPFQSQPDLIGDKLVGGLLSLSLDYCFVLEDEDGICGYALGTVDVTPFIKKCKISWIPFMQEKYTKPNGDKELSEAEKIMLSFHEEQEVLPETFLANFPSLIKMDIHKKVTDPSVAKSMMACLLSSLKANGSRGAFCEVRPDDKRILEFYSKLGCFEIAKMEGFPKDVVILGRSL
Assay: OGA biochemical assay: inhibition of FM-GlcNAc hydrolysis, fluorescence; protocol A (10 nM OGA, 1 h) or protocol B (2 nM OGA, 6 h)
Details: for IC50: read-out: Enzymatic hOGA, pIC50 (converted)
Source text: The assay is based on the inhibition of the hydrolysis of fluorescein mono-3-D-N-Acetyl-Glucosamine (FM-GlcNAc) (Mariappa et al. 2015, Biochem J 470:255) by the recombinant human Meningioma Expressed Antigen 5 (MGEA5), also referred to as O-GlcNAcase (OGA). The hydrolysis FM-GlcNAc (Marker Gene technologies, cat # M1485) results in the formation of ß-D-N-glucosamineacetate and fluorescein. The fluorescence of the latter can be measured at excitation wavelength 485 nm and emission wavelength 538 nm. An increase in enzyme activity results in an increase in fluorescence signal. Full length OGA enzyme was purchased at OriGene (cat # TP322411). The enzyme was stored in 25 mM Tris.HCl, pH 7.3, 100 mM glycine, 10% glycerol at −20° C. Thiamet G and GlcNAcStatin were tested as reference compounds (Yuzwa et al. 2008 Nature Chemical Biology 4:483; Yuzwa et al. 2012 Nature Chemical Biology 8:393). The assay was performed in 200 mM Citrate/phosphate buffer supplemented with 0.005% Tween-20. 35.6 g Na2HPO42H2O (Sigma, # C0759) were dissolved in 1 L water to obtain a 200 mM solution. 19.2 g citric acid (Merck, #1.06580) was dissolved in 1 L water to obtain a 100 mM solution. pH of the sodiumphosphate solution was adjusted with the citric acid solution to 7.2. The buffer to stop the reaction consists of a 500 mM Carbonate buffer, pH 11.0. 734 mg
FM-GlcNAc were dissolved in 5.48 mL DMSO to obtain a 250 mM solution and was stored at −20° C. OGA was used at a 10 nM (protocol A) or 2 nM (protocol B) concentration and FM-GlcNAc at a 100 uM final concentration. Dilutions were prepared in assay buffer.
50 nl of a compound dissolved in DMSO was dispensed on Black Proxiplate™ 384 Plus Assay plates (Perkin Elmer, #6008269) and 3 μl fl-OGA enzyme mix added subsequently. Plates were pre-incubated for 60 min at room temperature and then 2 μl FM-GlcNAc substrate mix added. […] Plates were briefly centrifuged for 1 min at 1000 rpm and incubate at room temperature for 1 h (10 nM OGA, protocol A) or 6 h (2 nM OGA, protocol B). To stop the reaction 5 μl STOP buffer were added and plates centrifuge again 1 min at 1000 rpm. Fluorescence was quantified in the Thermo Scientific Fluoroskan Ascent or the PerkinElmer EnVision with excitation wavelength 485 nm and emission wavelength 538 nm.
For analysis a best-fit curve is fitted by a minimum sum of squares method. From this an IC50 value and Hill coefficient was obtained. High control (no inhibitor) and low control (saturating concentrations of standard inhibitor) were used to define the minimum and maximum values.

[1] = Enzymatic protocol B (2 nM OGA, 6 h)
[2] = Enzymatic protocol A (10 nM OGA, 1 h)

Emax [1] [%]	IC50 [1] [µM]	Enzymatic Emax (%) [1] [%]	Emax [2] [%]	IC50 [2] [µM]	SMILES
91.9	1.23	–	–	–	CC(=O)Nc1ncc(CN2CCCC(COc3cc(C)nc(C)c3)C2)[nH]1 (racemic) [compound 132]
–	0.977	85.38	–	–	CC(=O)Nc1ncc(CN2CCCC(c3cc(C)nc(C)c3)C2)s1 (single isomer, unassigned) [compound 131]
–	–	–	96.3	0.661	CC(=O)Nc1ncc(S(=O)(=O)N2CCCC(Oc3cc(C)nc(C)c3)C2)s1 (centres unmarked) [compound 1]
–	–	–	89	1.05	CC(=O)Nc1ncc(S(=O)(=O)N2CCCC(Oc3ccnc(C)c3)C2)s1 (centres unmarked) [compound 2]
43	> 10	–	15	> 10	CC(=O)Nc1ncc(S(=O)(=O)N2CCC(c3ccnc(C)c3)C2)s1 (centres unmarked) [compound 3]
50.5	–	–	–	–	CC(=O)Nc1ncc(S(=O)(=O)N2CCC(c3ccc(C)nc3)C2)s1 (centres unmarked) [compound 4]
–	–	–	102	0.141	CC(=O)Nc1ncc(CN2CCCC(c3ccccc3)C2)s1 (centres unmarked) [compound 5, reference compound]
101	0.0501	–	–	–	CC(=O)Nc1ncc(CN2CCC[C@@H](Nc3cc(C)nc(C)c3)C2)s1 [compound 8]
101	0.0631	–	–	–	CC(=O)Nc1ncc(CN2CCCC(OCc3cc(C)nc(C)c3)C2)s1 (centres unmarked) [compound 21]
101	0.158	–	–	–	CC(=O)Nc1ncc(CN2CC[C@H](Nc3cc(C)nc(C)c3)C2)s1 [compound 23]
101	0.0135	–	–	–	CC(=O)Nc1ncc(CN2CCCC(N(C)c3cc(C)nc(C)c3)C2)s1 (centres unmarked) [compound 32]

More lines, now with the values behind:

SMILES	Emax [1] [%]	IC50 [1] [µM]	Enzymatic Emax (%) [1] [%]	Emax [2] [%]	IC50 [2] [µM]
Cc1cc(C[C@H]2CCN(C(C)c3nc4ccccc4[nH]3)C2)cc(C)n1 (mixture of isomers) [compound 78]	8.78	> 10	–	–	–
Cc1cc(C[C@H]2CCN(C(C)c3cc4ccccc4n3C)C2)cc(C)n1 (mixture of isomers) [compound 94]	30.7	> 10	–	–	–
Cc1cc(CC2CCCN(C(C)c3nc4ccccc4[nH]3)C2)cc(C)n1 (racemic) [compound 149]	67.6	5.37	–	–	–
Cc1cc(OCC2(F)CCCN(Cc3ccc4nccnc4c3)C2)cc(C)n1 (racemic) [compound 157]	69	2.4	–	–	–
CC(=O)Nc1ncc(CN2C[C@@H](F)C[C@@H](COc3cc(C)nc(C)n3)C2)s1 (racemic) [compound 164]	94	0.617	–	–	–
CC(=O)Nc1ncc(CN2C[C@@H](Cc3cc(C)nc(C)c3)CC[C@@H]2C)s1 (racemic) [compound 165]	100	0.00224	–	–	–
CC(=O)Nc1ncc(CN2C[C@@H](Cc3cc(C)nc(C)c3)CC[C@H]2C)s1 (racemic) [compound 166]	99	0.00263	–	–	–
CC(=O)Nc1ncc(CN2CCC[C@@H](Cc3cc(C)nc(C)c3)[C@H]2C)s1 (racemic) [compound 169]	100	0.0871	–	–	–
CC(=O)Nc1ncc(CN2CCC[C@@H](Cc3cc(C)nc(C)c3)[C@H]2C)s1 (single isomer, unassigned) [compound 170]	100	0.0813	–	–	–
CC(=O)Nc1ncc(CN2CCC[C@H](Cc3cc(C)nc(C)c3)[C@@H]2C)s1 (single isomer, unassigned) [compound 171]	52	9.55	–	–	–
Cc1cc(N[C@@H]2CCCN(Cc3ccc4nccnc4c3)C2)cc(C)n1 [compound 10]	85.6	1.66	–	–	–
Cc1cc(N[C@H]2CCCN(Cc3ccc4nccnc4c3)C2)cc(C)n1 [compound 12]	92.9	0.676	–	–	–
CC(=O)Nc1ncc(CN2CC[C@@H](Nc3cc(C)nc(C)c3)C2)s1 [compound 22]	99.8	0.214	–	–	–
CC(=O)Nc1ncc(CN2CC[C@@H](Cc3ccc(C(F)(F)F)c(C)n3)C2)s1 [compound 36]	99	0.0562	–	–	–
CC(=O)Nc1ncc(CN2CCC(Cc3cccc(C(C)C)n3)C2)s1 (centres unmarked) [compound 40]	99.7	0.00776	–	–	–

— US20200079766A1, “MONOCYCLIC OGA INHIBITOR COMPOUNDS” (Janssen Pharmaceutica NV, priority 2016, published 2020)
